Results on two molecules are retold here after publication PMC5430874 (Scientific Reports, 2017).

One assay concerns the target T1, untagged GPR139(WT) (Homo sapiens, UniProt Q6DWJ6).
T1 construct: expressed in transfected cells; host or cells: HEK293
T1 sequence (Q6DWJ6 1-353): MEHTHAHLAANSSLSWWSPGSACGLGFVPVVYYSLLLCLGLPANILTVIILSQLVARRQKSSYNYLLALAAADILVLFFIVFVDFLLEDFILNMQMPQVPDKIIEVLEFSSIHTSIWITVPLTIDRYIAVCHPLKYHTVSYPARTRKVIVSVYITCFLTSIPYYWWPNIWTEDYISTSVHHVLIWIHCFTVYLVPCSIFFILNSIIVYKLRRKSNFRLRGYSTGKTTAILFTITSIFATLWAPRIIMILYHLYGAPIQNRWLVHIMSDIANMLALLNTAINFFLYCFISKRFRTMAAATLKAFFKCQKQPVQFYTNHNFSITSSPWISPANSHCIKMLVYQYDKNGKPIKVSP
Kind of assay: Fluo-4 Ca2+-assay, untagged wild-type GPR139 in HEK293. The format is cell-based. To be noted: untagged WT receptor. An excerpt: (§1) To study the influence of specific amino acids in the predicted binding pocket on receptor function, the desired mutations were introduced into an N-terminally c-myc-tagged wild type human GPR139 (NM_001002911.3) in the pEGFP-N1 vector (BD Biosciences)[32], [33]. As previously described, these plasmids carry the signal peptide of mGluR5 to promote cell surface expression followed by a c-myc epitope to enable detection of total and surface expression by ELISA, followed by an engineered MluI and NotI site for easy insertion of the receptor of interest. Furthermore, the start-codon in the GPR139 sequence was deleted to ensure c-myc-tagging. […]
(§2) The Ca^2+ measurements were preformed using the Fluo-4 NW Calcium Assay Kit (Invitrogen, Molecular Probes, F36206) as previously described. […] Intracellular calcium changes were recorded as indicated on either a NOVOstar (BMG Labtech) at 37 °C with an excitation filter of 485 nm and an emission filters 520 nm or a FlexStation 3 Benchtop Multi-Mode Microplate Reader (Molecular Devices) at 37 °C with an excitation wavelength of 485 nm and emission of 525 nm.
(§3) All pharmacological data have been analyzed by using Prism 6.0 (GraphPad Software Inc., San Diego). […] Changes in potency (pEC50) and span of myc-GPR139(WT) in comparison to untagged GPR139(WT) was statistically analyzed with a paired t-test and significance was accepted at p < 0.05. […]

The next assay has as its target T2, GPR139 E105Q3x29 (Homo sapiens, UniProt Q6DWJ6, E105Q).
T2 construct: mGluR5 signal peptide (N); expressed in transfected cells; host or cells: HEK293
T2 sequence (Q6DWJ6 2-353 E105Q limits assumed): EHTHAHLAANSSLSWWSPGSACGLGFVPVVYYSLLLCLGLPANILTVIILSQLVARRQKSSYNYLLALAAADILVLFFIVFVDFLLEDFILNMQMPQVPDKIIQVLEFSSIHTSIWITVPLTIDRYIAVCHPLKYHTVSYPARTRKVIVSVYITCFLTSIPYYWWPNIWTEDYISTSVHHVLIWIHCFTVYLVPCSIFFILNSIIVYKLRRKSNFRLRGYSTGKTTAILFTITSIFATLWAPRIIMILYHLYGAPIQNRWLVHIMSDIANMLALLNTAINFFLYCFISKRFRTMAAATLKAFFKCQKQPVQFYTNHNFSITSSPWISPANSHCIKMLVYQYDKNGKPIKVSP
Kind of assay: Fluo-4 Ca2+-assay, GPR139 mutant E105Q. The assay is classed as cell-based.
Excerpt: as §1, §2, §3

Another assay relates to rats. Details: method as in PMID 26349500. Particulars: cited from earlier work.

Consider `COc1cc(OC)cc(C(=O)NNC(=O)Nc2cccc3ccccc23)c1` [Compound 1a], for which the results for the EC50 on untagged GPR139(WT) and on GPR139 E105Q3x29 (E105Q mutant) were 772 nM and 145 nM, respectively. The Emax (as a rule, the size of the effect at its maximum, as opposed to the concentration needed) on GPR139 E105Q3x29 (E105Q, normalized to buffer (0%) and 8 µM 1a (100%)) turned out to be 177 ± 36%.

Regarding `C[C@@H](NC(=O)CNC(=O)c1cccc(Cl)c1)c1ccccc1` (racemic) [Compound 7c], in the assay on rats, the spontaneous locomotion activity entry is on record as “decreased spontaneous locomotion activity”.
